# From BindingDB's records for doi:10.1016/j.ejmech.2018.08.031 (Wenzhou Medical University, 2018)
# Assay: Inhibition of recombinant human GST-tagged EGFR L858R mutant cytoplasmic domain expressed in baculovirus expression system using FAM-labeled peptide as substrate after 10 mins by mobility shift assay
row,SMILES,IC50 [nM]
1,COc1cc(Nc2cc(Nc3ccc(Cl)cc3)ncn2)cc(OC)c1OC,> 10000
2,CCOc1ccc(Nc2cc(NC(=O)c3ccccc3)ncn2)cc1,1210
3,O=C(O)CCCC(=O)Nc1cc(N2CCOCC2)ncn1,27
4,COc1ccc(OC)c(Nc2cc(NC(=O)CCCC(=O)O)ncn2)c1,> 10000
5,COc1ccc(OC)c(Nc2cc(NCCc3cccs3)ncn2)c1,167
6,COc1cccc(Nc2cc(NC(=O)CCCC(=O)O)ncn2)c1,31
7,COc1cccc(Nc2cc(Nc3ccc(S(N)(=O)=O)cc3)ncn2)c1,1850
8,COc1ccc(OC)c(Nc2cc(Nc3ccc(N4CCN(C)CC4)cc3)ncn2)c1,167
9,COc1ccc(Nc2cc(NC(=O)c3ccccc3)ncn2)cc1,60
10,O=C(O)CCCC(=O)Nc1cc(Nc2ccc(Cl)cc2)ncn1,1320
11,O=C(O)CCCC(=O)Nc1cc(Nc2cccc(Br)c2)ncn1,> 10000
12,COc1ccc(OC)c(Nc2cc(Nc3ccc(S(N)(=O)=O)cc3)ncn2)c1,619
13,CCNc1cc(Nc2cccc(Cl)c2)ncn1,> 10000
14,CCOC(=O)c1ccc(Nc2cc(Nc3cccc(OC)c3)ncn2)cc1,1740
15,COc1ccc(OC)c(Nc2cc(Nc3ccc(F)cc3)ncn2)c1,230
16,O=C(Nc1cc(Nc2ccc(Cl)cc2)ncn1)c1ccc(F)cc1,1610
17,O=C(O)CCCC(=O)Nc1cc(Nc2ccccc2)ncn1,183
18,CCOC(=O)c1ccc(Nc2cc(NC(=O)CCCC(=O)O)ncn2)cc1,69
19,CCOC(=O)CCC(=O)Nc1cc(Nc2cccc(Br)c2)ncn1,1340
20,CCOC(=O)CCCC(=O)Nc1cc(Nc2cccc(Cl)c2)ncn1,> 10000
21,COc1cccc(Nc2cc(Nc3cccc(Cl)c3)ncn2)c1,1570
